Results published in patent US4189607A, “Anilionotropone derivatives” (priority 1979, dated 1980).
Where a name gives a salt, the structure may show the parent alone.

Columns and labels:
rat paw edema = experiment: Anti-inflammatory activity, carrageenin rat paw edema (Winter et al); type: in vivo, Male Wistar strain rats; settings: p.o., four hours after injection of carrageenin
Description: Experiment 1: Anti-inflammatory activity
Anti-inflammatory activity was evaluated by the method of rat paw edema (Winter et al, J. Pharmacol. Exp. Ther., 141, 369 (1963) ). Six male Wistar strain rats were used in each group and the volume of each paw was measured four hours after injection of carrageenin.

[1] = Analgesic activity, method of Randall-Selitto with slight modification; type: in vivo, Male Wistar strain rats; settings: 25 mg/kg orally, vs Cpd. 3 at 100 mg/kg
Description: Experiment 2: Analgesic activity
Male Wistar strain rats in groups of six each were used for the evaluation of analgesic activity by the method of Randall-Selitto (Arch. Intern. Pharmacodyn., 111, 409 (1957) ) with slight modification. In a graph where the load was plotted on the ordinate and the time was plotted on the abscissa, the curve obtained when Cpd. 1 was orally administered in a dose of 25 mg/kg was substantially in agreement with the curve obtained when Cpd. 3 was orally administered in a dose of 100 mg/kg. […] 1 was administered in a dose of 50 mg/kg and the Cpd 3 was administered in a dose of 200 mg/kg.

acetic acid writhing = experiment: Analgesic activity, acetic acid writhing test (Koster et al); type: in vivo, Male ddY strain mice; settings: p.o.
Excerpt: Experiment 3: Analgesic activity
Male ddY strain mice in groups of ten each were used for evaluation of analgesic activity by the acetic acid writhing test (Koster et al, Federation Proc., 18, 412 (1959). The results are shown in Tables 3 and 4.

gastric lesions = experiment: Gastric ulcerogenicity (gastric lesions); type: in vivo, Male Wistar strain rats; settings: p.o., 18 hours fasting prior to autopsy
Excerpt: Experiment 4: Gastric ulcerogenicity […] The gastric lesions induced was expressed as incidence (number of rats with gastric lesions/number of the test rats) and lesion index (sum of areas damaged).

[2] = Table 6, 100 + 200 mg/kg, 200 mg/kg

CC(C(=O)O)c1ccc(Nc2cccccc2=O)cc1 (centres unmarked) [Cpd. 1, 2-[p-(2-troponylamino)phenyl]propionic acid]
Inhibition (%) (rat paw edema; Table 1, 25 mg/kg): 56.8% | Inhibition (%) (rat paw edema; Table 1, 50 mg/kg): 50.9% | Inhibition (%) (rat paw edema; Table 1, 100 mg/kg): 61.0% | Load-time curve compared with Cpd. 3 [1]: substantially in agreement with the curve obtained when Cpd. 3 was orally administered in a dose of 100 mg/kg | Inhibition (%) (acetic acid writhing; Table 3, 100 mg/kg): 54.8% | Incidence (number of rats with gastric lesions/number of the test rats) (gastric lesions; Table 5, 25 + 50 mg/kg): 0/6 | Lesion index (sum of areas damaged) (gastric lesions; Table 5, 25 + 50 mg/kg): 0 mm^2 | Incidence (number of rats with gastric lesions/number of the test rats) (gastric lesions; Table 5, 50 + 100 mg/kg): 1/6 | Lesion index (sum of areas damaged) (gastric lesions; Table 5, 50 + 100 mg/kg): 0.02 ± 0.017 mm^2 | Incidence (number of rats with gastric lesions/number of the test rats) (gastric lesions; Table 5, 100 + 200 mg/kg): 4/6 | Lesion index (sum of areas damaged) (gastric lesions; Table 5, 100 + 200 mg/kg): 0.52 ± 0.17 mm^2

CC(C(=O)O)c1cccc(Nc2cccccc2=O)c1 (centres unmarked) [Cpd. 2, 2-[m-(2-troponylamino)phenyl]propionic acid]
Inhibition (%) (rat paw edema; Table 2, 100 mg/kg, 100 mg/kg): 43.0% | Inhibition (%) (acetic acid writhing; Table 4, 100 mg/kg): 31.2% | Incidence (number of rats with gastric lesions/number of the test rats) (gastric lesions; [2]): 0/6 | Lesion index (sum of areas damaged) (gastric lesions; [2]): 0 mm^2

CC(C(=O)O)c1cccc(Nc2cccccc2=O)c1 (centres unmarked) [Cpd. 2-Ca salt, calcium 2-[m-(2-troponylamino)phenyl]propionate]
Inhibition (%) (rat paw edema; Table 2, 100 mg/kg, 100 mg/kg): 43.2% | Inhibition (%) (acetic acid writhing; Table 4, 100 mg/kg): 31.2% | Incidence (number of rats with gastric lesions/number of the test rats) (gastric lesions; [2]): 2/6 | Lesion index (sum of areas damaged) (gastric lesions; [2]): 0.12 ± 0.10 mm^2

CCCCC1C(=O)N(c2ccccc2)N(c2ccccc2)C1=O [Cpd. 3, phenylbutazone, reference compound]
Inhibition (%) (rat paw edema; Table 1, 25 mg/kg): 22.4% | Inhibition (%) (rat paw edema; Table 1, 50 mg/kg): 34.7% | Inhibition (%) (rat paw edema; Table 1, 100 mg/kg): 54.5% | Inhibition (%) (rat paw edema; Table 2, 100 mg/kg): 32.5% | Inhibition (%) (acetic acid writhing; Table 3, 200 mg/kg): 18.5% | Inhibition (%) (acetic acid writhing; Table 4, 100 mg/kg): 10.7% | Lesion index (sum of areas damaged) (gastric lesions; Table 5, 25 + 50 mg/kg): 0.02 ± 0.014 mm^2 | Lesion index (sum of areas damaged) (gastric lesions; Table 5, 50 + 100 mg/kg): 1.43 ± 0.43 mm^2 | Lesion index (sum of areas damaged) (gastric lesions; Table 5, 100 + 200 mg/kg): 6.82 ± 1.40 mm^2 | Lesion index (sum of areas damaged) (gastric lesions; Table 6, 100 + 200 mg/kg): 7.70 ±3.23 mm^2
